target: T1, D(4) dopamine receptor (Homo sapiens) (UniProt P21917); conditions: CHO-K1
T1 sequence (whole entry): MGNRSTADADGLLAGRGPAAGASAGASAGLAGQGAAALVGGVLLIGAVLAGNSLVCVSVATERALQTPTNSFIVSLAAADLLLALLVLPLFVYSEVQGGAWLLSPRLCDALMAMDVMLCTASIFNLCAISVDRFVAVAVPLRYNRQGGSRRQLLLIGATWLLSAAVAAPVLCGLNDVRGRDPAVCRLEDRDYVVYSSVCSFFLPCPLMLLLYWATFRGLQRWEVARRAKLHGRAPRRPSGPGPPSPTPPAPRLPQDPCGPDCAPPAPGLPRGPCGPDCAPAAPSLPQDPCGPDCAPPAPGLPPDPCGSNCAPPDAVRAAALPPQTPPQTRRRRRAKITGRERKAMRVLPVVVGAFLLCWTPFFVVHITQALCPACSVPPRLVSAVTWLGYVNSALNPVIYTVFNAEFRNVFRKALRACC
Description: Ability to displace [3H]spiperone from dopamine receptor D4.4 expressed in CHO-K1 cells

Question: `Cc1cccc2c(CN3CCN(c4ccc(Cl)cc4)CC3)cnn12` was tested. Which pKi did it give?
Answer: The pKi was 8.57.

Question: `OCc1ccc2c(CN3CCN(c4ccccc4)CC3)cnn2c1` was tested. Which pKi did it give?
Answer: The pKi was 7.71.

Question: `Fc1ccc(N2CCN(Cc3cnn4ccccc34)CC2)cc1` was tested. Which pKi did it give?
Answer: Its pKi is 7.7.

Question: For `C#Cc1ccc(N2CCN(Cc3cnn4ccccc34)CC2)cc1`, which pKi is on record?
Answer: The pKi was 8.36.

Question: `Clc1ccc(N2CCN(Cc3cnn4c(I)cccc34)CC2)cc1` was tested. Which pKi did it give?
Answer: The pKi was 8.3.

Question: For `Clc1ccc(N2CCN(Cc3cc4ccccn4n3)CC2)cc1`, which pKi is on record?
Answer: The pKi was 8.66.

Question: `FC(F)(F)c1cccc(N2CCN(Cc3cnn4ccccc34)CC2)c1` was tested. Which pKi did it give?
Answer: Its pKi is 8.72.

Question: `Clc1ccc(N2CCN(Cc3cc[nH]c3)CC2)cc1` was tested. Which pKi did it give?
Answer: Its pKi is 7.41.

Question: How did the pKi turn out when `Cc1cccn2ncc(CN3CCN(c4ccc(Cl)cc4)CC3)c12` was run?
Answer: Its pKi is 7.3.

Question: For `Clc1ccc(N2CCN(Cc3ccc[nH]3)CC2)cc1`, which pKi is on record?
Answer: The pKi was 7.58.

Question: Which pKi does the source give for `Clc1ccc(N2CCN(Cc3cc4ccccc4[nH]3)CC2)cc1` here?
Answer: The pKi was 7.74.

Question: `Ic1ccc(N2CCN(Cc3cnn4ccccc34)CC2)cc1` was tested. Which pKi did it give?
Answer: Its pKi is 8.52.

Question: How did the pKi turn out when `Clc1ccc(N2CCN(Cc3cnn4ccccc34)CC2)cc1Cl` was run?
Answer: The pKi was 8.25.

Question: How did the pKi turn out when `N#CC(C#N)=Cc1cc(CN2CCN(c3ccc(Cl)cc3)CC2)c[nH]1` was run?
Answer: Its pKi is 8.24.

Question: With `Clc1cccc(N2CCN(Cc3cnn4ccc5ccccc5c34)CC2)c1` as the molecule, how does the pKi read?
Answer: The pKi was 6.1.

Question: For `C#Cc1cccc2c(CN3CCN(c4ccc(Cl)cc4)CC3)cnn12`, which pKi is on record?
Answer: Its pKi is 8.91.

Question: Which pKi does the source give for `CCN1CCN(Cc2cnn3ccccc23)CC1` here?
Answer: Its pKi is 4.62.

Question: `N#CC(C#N)=Cc1ccc(CN2CCN(c3ccc(Cl)cc3)CC2)[nH]1` was tested. Which pKi did it give?
Answer: Its pKi is 8.02.

Question: For `Clc1ccc(N2CCN(Cc3ccccc3)CC2)cc1`, which pKi is on record?
Answer: Its pKi is 6.6.

Question: How did the pKi turn out when `Clc1cccc(N2CCN(Cc3cnn4c3ccc3ccccc34)CC2)c1` was run?
Answer: Its pKi is 6.66.
